Among the test systems are COLO 205; HCC 2998; HCT-15; HL-60; HOP-92; HT-29; MDA-N; Malme-3M; NCI-H23; NCI-H522; OVCAR-8; PC-3; RXF 393; SF-268; SF-295; SK-MEL-28; SN12C; SNB-75; SR; UACC-257.
Common to all, as to assay: DTP human tumour cell line panel, 48 h

For one compound, GI50 results are on record in ChEMBL document CHEMBL1201862, “PubChem BioAssay data set” (2004).

Molecules are shown by their SMILES.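 Results reflect a 48-hour exposure of cells in 96-well plates to compound at five concentrations. GI50: concentration for 50% inhibition of growth.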 Active and inactive are the calls of the source. No stated cut-off is given here; in the data, active = GI50 up to about 1.1 µM and inactive = higher. Where a SMILES comes first, the peptide text is derived from it. [ ]: non-standard residue; d: D form. The star is where a group is joined. Phe(4-NO2) = N[CH](Cc1ccc([N+](=O)[O-])cc1)C(=O)O; Boc = CC(C)(C)OC(=O)*; OtBu = CC(C)(C)O*

Consider `CC(=O)NC(CCC(=O)OC(C)(C)C)C(=O)NC(CCC(=O)OC(C)(C)C)C(=O)NC(Cc1ccc([N+](=O)[O-])cc1)C(=O)NC(CCCCNC(=O)OC(C)(C)C)C(=O)NC(CCCCNC(=O)OC(C)(C)C)C(=O)NCC(=O)O` (stereo not given) (Ac-E(OtBu)E(OtBu)[Phe(4-NO2)]K(Boc)K(Boc)G-OH; configuration not given here), for which the GI50 in the assay with COLO 205 is > 100 µM (inactive); in the assay on HCC 2998, > 100 µM (inactive); with HCT-15 it was above 100 µM; in the assay with HL-60, > 100 µM (inactive); with HOP-92, > 100 µM (inactive); in the assay with HT-29 it was > 100 µM (inactive). Further, the GI50 in the assay with MDA-N, with Malme-3M, in the assay on NCI-H23, with NCI-H522, in the assay on OVCAR-8 and with PC-3 was > 100 µM (inactive) in each case. Further, the GI50 in the assay on RXF 393, in the assay with SF-268, in the assay on SF-295, in the assay with SK-MEL-28, in the assay on SN12C and in the assay on SNB-75 was > 100 µM (inactive) throughout. Moreover, the GI50 in the assay on SR and with UACC-257 was > 100 µM (inactive) throughout.

The term GI50 denotes the concentration that inhibits growth by half.
